Assays:
[1] = Stability in liver microsomes (rat); type: in vitro ADME, Sprague-Dawley (SD) rats; details: r (SD rat liver microsomes), 0.5 mg/mL, read-out: MMS Clint
Method: (§1) The purpose of this study was to evaluate the phase I metabolic stability of the assay sample in liver microsomes from CD-1 mice, Sprague-Dawley (SD) rats, beagle dogs, cynomolgus monkeys, and human.
(§2) The animal and human liver microsomes used in this assay system were purchased from Xenotech, Corning, or other qualified suppliers.
(§3) Preparation of buffer: 73.21 g of potassium phosphate dibasic trihydrate and 10.78 g of potassium dihydrogen phosphate were dissolved in 4000 mL of ultrapure water. The pH of the solution was adjusted to the range of 7.40 ± 0.10 using 10.0% phosphoric acid or 1.00 M potassium hydroxide. Its final concentration was 100 mM.
(§4) Preparation of working solutions: An assay sample powder was prepared into a 10.0 mM stock solution with DMSO, and then further diluted with a suitable organic solvent. The control compounds testosterone, diclofenac, and propafenone were prepared into 10.0 mM stock solutions using DMSO, and then further diluted with a suitable organic solvent.
(§5) Preparation of liver microsome solution: Microsomes of various species were diluted with 100 mM potassium phosphate buffer to a working solution of 0.56 mg/mL. The final concentration of microsomes in the reaction system was 0.500 mg/mL. Detailed preparation procedures were described in the experimental records.
(§6) Preparation of reduced nicotinamide adenine dinucleotide phosphate (NADPH) solution: An appropriate amount of reduced nicotinamide adenine dinucleotide phosphate was dissolved in magnesium chloride solution, and the mixture was shaken to mix well. The final concentrations in the reaction system were 1.00 mM NADPH and 1.00 mM magnesium chloride, respectively. Detailed preparation procedures were described in the experimental records.
(§7) Preparation of stop solution: The stop solution was prepared using acetonitrile containing internal standards (tolbutamide and labetalol). The prepared stop solution was stored at 2.0 to 8.0 °C in a refrigerator. Detailed preparation procedures were described in the experimental records. […]

[2] = Stability in liver microsomes (mouse); type: in vitro ADME, CD-1 mice; details: m (CD-1 mouse liver microsomes), 0.5 mg/mL, read-out: MMS Clint
Method: as §1, §2, §3, §4, §5, §6, §7

[3] = Kinetic solubility in 50 mM phosphate buffer, LC-UV; type: physicochemical; details: room temperature, 24 hours
Method: The purpose of this assay was to determine the kinetic solubility of the compounds after incubation at room temperature in a 50 mM phosphate buffer solution with a pH of 2.0, 6.5, and 7.4 for 24 hours using a direct ultraviolet method.
10 µL of DMSO stock solutions of a test compound and control compound were added to a 96-well plate. 490 µL of the test medium was added to the 96-well plate, respectively. The plate was sealed, and vortexed for 2 minutes. The incubation concentration of a sample was 200 µM, wherein, DMSO accounted for 2%. The 96-well plate was placed on a shaker, and incubated at room temperature and 800 rpm for 24 hours to reach dissolution equilibrium. After the incubation, the sample was put into a centrifuge, and centrifuged at 25 °C and 4000 rpm for 10 minutes. The supernatant from the centrifuged sample was transferred to a filter plate, centrifuged at 4000 rpm for 5 minutes, and filtered to give filtrate. The concentration of the filtrate was analyzed using linear quantitative analysis with LC-UV (the sample was diluted as needed).
Data of the assay were acquired and processed using Empower software. Linear regression analysis was performed by plotting the relationship between the peak area and their concentrations in µM.

| SMILES | CLint scaled at 1 µM [1] [mL/min/kg] | CLint scaled at 1 µM [2] [mL/min/kg] | KSY ([3]; pH 2.0, 50 mM phosphate buffer) [µg/mL] | KSY ([3]; pH 6.5, 50 mM phosphate buffer) [µg/mL] | KSY ([3]; pH 7.4, 50 mM phosphate buffer) [µg/mL] |
| --- | --- | --- | --- | --- | --- |
| CC(C)(C)CC(=O)Nc1nc2c(F)cc(C#N)cn2c1-c1ccc(OC(F)(F)F)cc1 [Compound 1] | 193 | 220 | – | – | – |
| CC(C)(C)CC(=O)Nc1nc2c(F)cc(C#N)cn2c1C1=CCCC1 [Compound 3] | 123 | 103 | 3.78 | 3.68 | 4.43 |
| CC(C)(C)CC(=O)Nc1nc2c(F)cc(C#N)cn2c1C12CC(C1)C2 [Compound 5] | < 17 | < 38 | 4.46 | 4.57 | 4.79 |
| CC(C)(C)CC(=O)Nc1nc2c(C(F)(F)F)cc(C#N)cn2c1C12CC(C1)C2 [Compound 6] | – | – | 21.7 | 20.9 | 21.4 |

Source: EP4786454A1, “HETEROARYL DERIVATIVE AND USE THEREOF” (priority 2023, dated 2025)
